Reference: ChEMBL document CHEMBL3108675, “Structure, absolute configuration, and antidiarrheal activity of a thymol derivative from Ageratina cylindrica” (J Nat Prod, 2014)
Where a name gives a salt, the structure may show the parent alone.

Experiments:
Giardia intestinalis = assay: Antiprotozoal activity against Giardia lamblia IMSS:1090:1; assay type: functional, organism-based; details: Giardia duodenalis
Rattus norvegicus = species: Rattus norvegicus; assay: Antidiarrheal activity in rat assessed as inhibition of charcoal-gum acacia-induced hyperperistalsis; assay type: functional; details: read-out: ID50 (the source's name)
Entamoeba histolytica = assay: Antiprotozoal activity against Entamoeba histolytica HM-1:IMSS; assay type: functional, organism-based

SMILES | IC50 (Giardia intestinalis) | IC50 (Entamoeba histolytica) | ED50 (Rattus norvegicus)
CC[C@H]1CN2CCc3cc(OC)c(OC)cc3[C@@H]2C[C@@H]1C[C@H]1NCCc2cc(OC)c(OC)cc21 [EMETINE] | 0.83 µM |  | 
CN(C)C(=O)C(CCN1CCC(O)(c2ccc(Cl)cc2)CC1)(c1ccccc1)c1ccccc1 [LOPERAMIDE HYDROCHLORIDE] |  |  | 0.2 µmol/kg

Second part, led by results:

IC50 (Giardia intestinalis) | IC50 (Entamoeba histolytica) | SMILES | ED50 (Rattus norvegicus)
117 µM | 226 µM | Oc1cc(O)c2c(c1)OC(c1ccc(O)c(O)c1)C(O)C2 (stereo not drawn) [CATECHIN] | 
 | 0.23 µM | Cc1ncc([N+](=O)[O-])n1CCO [METRONIDAZOLE] | 
167 µM | 185 µM | CC(C)C(=O)Oc1cc(C=O)c(O)cc1[C@@]1(COC(=O)c2ccccc2)CO1 | 0.85 µmol/kg
